Experimental data taken from patent publication US20140275090A1, “BILE ACID RECYCLING INHIBITORS FOR TREATMENT OF PRIMARY SCLEROSING CHOLANGITIS AND INFLAMMATORY BOWEL DISEASE” (Lumena Pharmaceuticals, Inc., priority 2013, published 2014).

What was measured:
serum bile acids [1] = assay: Fasting and post-prandial peak serum bile acids in children and adolescents after eight days of LUM001; type: in vivo, human; conditions: LUM001 treated patients
Protocol: The efficacy of LUM001 was determined by measuring total serum bile acids after eight days of dosing in children and adolescents under the age of eighteen. Thirty minutes before the next drug administration, at approximately 8 am in the morning, serum bile acid levels were measured. The child had refrained from food for 12 hours prior to this sample thus providing a fasted level of serum bile acid. After breakfast, serum bile acids were measured for up to the next 4 hours (8 am to noon) and the peak serum bile acid concentration noted.

serum bile acids [2] = assay: Time to onset of activity of LUM001 on postprandial serum total bile acids (SBA) in beagle dogs; type: in vivo; conditions: dog SBA model, oral, 1 hour after feeding
Protocol: LUM001 was dissolved in water at concentrations that required the administration of 0.2 ml/kg of solution. Solutions were placed into gelatin capsules, Torpac Inc., size 13 Batch 594, East Hanover N.J., and administered orally.
Male beagle dogs were obtained from Covance Research Products, Cumberland Va. or Marshall Farms USA, Inc., North Rose N.Y. A total of 20 dogs, 1 to 5 years old, 6.8 to 15.6 kg body weight, were used in these experiments. The dogs were conditioned to a 12 hour light/dark cycle and maintained on a feeding restriction of 1 hour per day access to food (Richman Standard Certified Canine Diet #5007, PMI Nutrition, Inc., St. Louis Mo.) from 7 to 8 AM. They were trained to eat a special meal promptly within 20 minutes when presented (1 can. 397 g, Evanger's 100% Beef for Dogs, Evanger's Dog and Cat Food Co., Inc., Wheeling Ill., mixed with 50 g of sharp cheddar cheese.).
SBA was measured by an enzymatic assay. SBA values are expressed as […] of total bile acids/ml of serum.
To estimate the details of this plateau, 6 dogs were given a test meal and blood samples for SBA measurement were collected at −30, 0, 30, 60, 65, 70, 80, 90, 120, 180, 240, 360, 480, 720, 1410 and 1440 minutes from the time of feeding. Any remaining food was removed 20 min after it was first presented to the dogs. […]

fecal bile acids = assay: Fecal bile acid measurement, rats dosed 4 days; type: in vivo, Wistar rat; conditions: for Increase over Vehicle (Delta): fecal bile acids, rat, 4 days
Protocol: Male Wistar rats (Charles River Laboratories) weighing 275-300 grams were single-housed in a constant temperature environment with alternating 12 hour light and dark cycles. All animals had continuous access to a commercial rodent diet as well as water. In each study rats were randomly assigned to either vehicle or treatment groups and were administered intragastric doses of drug dissolved in aqueous 0.2% (v/v) Tween 80 (2 ml/kg body weight). The animals were dosed in the morning between 9:00 and 10:00 a.m. for four consecutive days. Fecal samples were collected on papers underneath each cage during the final 48 hour period of the study and analyzed for bile acid content.
Cage papers containing the 48-hour fecal samples were collected at approximately 9:00 a.m. on the final day and used to determine the individual fecal bile acid (FBA) concentration for each animal. Fecal samples from each rat were weighed and a weight of distilled water (1 gram/mL) equal to 2 times the total weight of feces was added to each sample container (e.g., 20 mL water to 10 grams feces). The containers were stored overnight at 4° C. Each sample was homogenized for approximately 45 seconds using a small food processor to yield a homogeneous slurry. 1.4 grams of the homogenate was weighed into 16×100 polypropylene tubes and 2.6 mL of tertiary butanol/distilled water (2:0.6) added to yield a final concentration of 50% (v/v) tertiary butanol in water. The sample was extracted by incubation for 45 minutes in a 37° C. water bath, and subjected to centrifugation at 3000×g for 13 minutes and the supernatant extract collected.
The concentration of bile acids […] in the extract was determined using a 96-well enzymatic assay system (4,5). 20 μl aliquots of each butanol extract was added to two sets of triplicate wells in a 96-well assay plate (one set on each half of the plate). Standardized sodium taurocholate solutions (0.2 and 0.9 mM) and standardized fecal extract solutions (previously made from pooled fecal samples collected from control and drug-treated rats) were analyzed in parallel to provide a bile acid standard curve and internal quality control samples, respectively. 20 μl aliquots of the sodium taurocholate standard were serially diluted to generate a standard curve and were added to two separate sets of triplicate wells.
To each well, 230 μl of reaction mixture containing 1M hydrazine hydrate, 0.1 M pyrophosphate and 0.46 mg/ml NAD was added. […] Following a 60 minute incubation at room temperature, the optical density at 340 nm was measured and the mean of each set of triplicate wells was calculated. […] A mean value for the increase in FBA for each group was determined and compared to the vehicle group used, to determine compound dosing efficacy. […]

CCCCC1(CCCC)CS(=O)(=O)c2ccc(N(C)C)cc2[C@@H](c2ccc(OCc3ccc(C[N+]45CCN(CC4)CC5)cc3)cc2)[C@H]1O [LUM001]
decrease in fasting serum bile acid level vs placebo (serum bile acids [1]): 24%
decrease in post-prandial peak serum bile acid level vs placebo (serum bile acids [1]): 23%
threshold dose (serum bile acids [2]): 0.05 mg/kg
Increase over Vehicle (Delta) (fecal bile acids; Q.D. 0.002 mg/kg/day): 4.1
Increase over Vehicle (Delta) (fecal bile acids; Q.D. 0.008 mg/kg/day): 5.9
Increase over Vehicle (Delta) (fecal bile acids; Q.D. 0.4 mg/kg/day): 47.0
effect on fecal bile acids (fecal bile acids; rats, all doses): significantly increased
